Laboratory results reported in patent US20250326723A1, “Development of an Enzyme-Inhibitor Reaction Using Cellular Retinoic Acid Binding Protein II for One-Pot Megamolecule Assembly” (NORTHWESTERN UNIVERSITY, priority 2021, published 2025).

Experiments:
[1] = target: T1, CrabTag (CRABP2) (Homo sapiens, UniProt P29373); experiment: Intact protein ESI-MS of CrabTag-inhibitor complexes; assay type: binding; details: CrabTag 1 μM, inhibitor 5 μM, 5 minutes
T1 construct: made in house; host or cells: E. coli T7 SHuffle Express
T1 sequence (P29373 2-138): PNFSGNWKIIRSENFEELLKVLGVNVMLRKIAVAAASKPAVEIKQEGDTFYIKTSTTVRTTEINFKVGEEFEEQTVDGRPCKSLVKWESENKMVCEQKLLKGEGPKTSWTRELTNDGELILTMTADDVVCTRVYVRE
Protocol: FIG. 3 illustrates ESI-MS deconvoluted spectra with expected and observed molecular weights for CrabTag with a N-terminal Histag. Top: Purified CrabTag protein with the N-terminal histag and TEV protease recognition sequence (R, Black). Bottom: Adduct from reaction of R (0.1 nmol, 1 μM) with an inhibitor of the disclosure having a structure according to Formula 10 (5 eq., 5 μM) (Red). The reaction occurred in 100 μL of 1×PBS for 5 minutes before being stopped by addition of formic acid in preparation for ESI-MS.
FIG. 4 illustrates intact protein ESI-MS for CrabTag-inhibitor complexes. Reactions of C-terminal Histag R (1 μM, 1 equivalent) with either an inhibitor of the disclosure having a structure according to Formula 10 (5 μM, 5 equivalents) or an inhibitor of the disclosure having a structure according to Formula 11 (5 μM, 5 equivalents) occurred for 5 minutes before being stopped with formic acid.
Megamolecules were prepared for LC-MS analysis and evaluation using ESI-MS. Reaction time points were taken by quenching the sample with 0.1% formic acid. The preparation involved the desalting and dilution of the multi-protein assembly to 1 μM in nuclease free water. […] Spectra data were analyzed with Agilent MassHunter Qualitative Analysis software to reveal m/z data. […]

[2] = target: T2, CrabTag protein domain (CRABP2) (Homo sapiens, UniProt P29373); experiment: Quantification of reaction kinetics for CRABP2 (CrabTag) covalent modification, fluorescent SDS-PAGE; assay type: biochemical
T2 construct: made in house; host or cells: E. coli T7 SHuffle Express
T2 sequence (P29373 with tags, fused parts or gaps): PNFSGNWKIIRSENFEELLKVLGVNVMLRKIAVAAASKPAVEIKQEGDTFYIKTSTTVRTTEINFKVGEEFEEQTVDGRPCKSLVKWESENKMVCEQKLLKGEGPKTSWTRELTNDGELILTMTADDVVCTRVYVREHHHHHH
Protocol: The present disclosure provides a method for synthesizing linker 11, which includes a fluorophore to characterize the kinetics for reaction of the covalent inhibitor and CrabTag, as shown in FIG. 10A. The inventors have run parallel reactions that varies the concentration of the linker (2, 5, 10, 20, 40, 65, and 100 μM) at a constant concentration of CrabTag (1 μM) and stops the reactions using Laemmli reducing buffer at times ranging from 0 to 120 seconds, as shown in FIG. 10B. […] The inventors have separated the reaction products with SDS-PAGE and quantitated the mean fluorescence intensity of protein bands that corresponded to the adduct with ImageJ. […]
The inventors synthesized linker 11, which included a fluorophore to characterize the kinetics for reaction of the covalent inhibitor and CrabTag as shown in FIG. 10A The inventors ran parallel reactions that varied the concentration of the linker (2, 5, 10, 20, 40, 65, and 100 μM) at a constant concentration of CrabTag (1 μM) and stopped the reactions using Laemmli reducing buffer at times ranging from 0 to 120 seconds as shown in FIG. 10B. […] The inventors separated the reaction products with SDS-PAGE and quantitated the mean fluorescence intensity of protein bands that corresponded to the adduct with ImageJ. […]

[3] = target: T2, CrabTag protein domain (CRABP2); experiment: Stability of the covalent CrabTag-linker adduct over two weeks, fluorescent SDS-PAGE; assay type: physicochemical
[4] = target: T3, CRABP2 (Homo sapiens, UniProt P29373); experiment: X-ray crystal structure of the CRABP2-10 covalent complex; assay type: binding; details: 1.8 Å structure
T3 construct: His6 (N); made in house; host or cells: E. coli T7 SHuffle Express
T3 sequence (P29373 with tags, fused parts or gaps): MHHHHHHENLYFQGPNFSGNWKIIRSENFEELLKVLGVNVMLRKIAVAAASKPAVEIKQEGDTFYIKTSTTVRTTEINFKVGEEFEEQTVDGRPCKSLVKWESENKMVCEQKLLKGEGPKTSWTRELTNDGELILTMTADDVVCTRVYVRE
Protocol: CRABP2 protein (1000 nmol, 100 μM) was reacted with inhibitor 10 (500 μM, 5 equivalents) in PBS for about 1-50 hours, about 6-20 hours, about 10-18 hours, about 12-16 hours, or about 16 hours. The protein-inhibitor adduct was then purified using SEC and the fractions containing the adduct were pooled, dialyzed, and concentrated to 12 mg/mL (1.275 mL total) using a Centrifugal Filter Unit. […]
Data Processing, Structure Determination and Model Refinement. […] Diffraction data were measured at the Life Sciences Collaborative Access beamlines at Sector 21 of the Advanced Photon Source at Argonne National Laboratory, indexed, integrated and scaled with HKL2000.^4 All subsequent work was conducted using the CCP4 suite of programs.^5 The space group and unit cell parameters were confirmed with Pointless.^6 The structure was determined by molecular replacement with PhaserMR, using a single monomer of Human Cellular Retinoic Acid Binding Protein II (CRABPII) (PDB: 6HKR) with ligands and water molecules removed as the initial phasing model. […]

[5] = tested on: fusion protein containing SnapTag and cutinase domains (CS); experiment: Cross-reactivity of SnapTag and cutinase protein domains with the fluorescent CrabTag inhibitor, SDS-PAGE; assay type: biochemical; details: CS 10 μM, linker 1 equiv., 25° C. in PBS; CrabTag protein added next day
Text: FIG. 18A illustrates orthogonality of enzyme-inhibitor pairs in the megamolecule assembly toolbox. A Coomassie stain with brightfield view of SDS-PAGE. Lane 1: CRABP2 (R) protein domain (MW, −16 kDa). Lane 2: Reaction of CRABP2 with fluorescent linker 11. Lane 3: Cutinase-SnapTag (CS) fusion protein (MW, −45 kDa). Lane 4: CS with the CrabTag fluorescent inhibitor. Lane 5: CS with the di-cutinase PEG11 linker to yield a di-CS megamolecule (MW, −90 kDa). Lane 6: CS with the di-SnapTag PEG11 linker to yield a di-CS megamolecule (MW, −90 kDa). Lanes 7-8: CS was first mixed with the CrabTag fluorescent inhibitor for two hours. Afterwards, the di-cutinase PEG11 or the di-SnapTag PEG11 linker was added, forming the di-CS megamolecule (MW, −90 kDa). The next day, the R protein was added to form the fluorescent band shown in the fluorescent SDS-PAGE. Lanes 9-10: R was first mixed with either the di-cutinase PEG11 or the di-SnapTag PEG11 linker for two hours, followed by the addition of the CS fusion protein to form the di-CS megamolecule (MW, −90 kDa). The following day, the fluorescent CrabTag linker was added to form the fluorescent band shown in the fluorescent SDS-PAGE. […]
The orthogonality of the CrabTag enzyme-inhibitor system was examined against our existing two chemistries, cutinase and SnapTag. […] All reactions were imaged by SDS-PAGE using both fluorescence and Coomassie stain.

SMILES	adduct stoichiometry by intact mass spectrometry [1]	effective rate constant of the inhibition reaction ([2]; CrabTag inhibition reaction)	enzyme-inhibitor complex stable (bound) ([3]; room temperature, over two weeks)	residue covalently modified in crystal structure [4]	reactivity of the CrabTag linker after incubation with CS fusion protein [5]	second order rate constant for the covalent modification reaction, keff ([2]; CrabTag 1 μM, linker 2-100 μM, times 0 to 120 seconds, ratio of ki and KI)	protein domains retaining covalent occupancy of the linker (normalized covalent occupancy) ([3]; 1 μM in PBS, 25° C. (room temperature), after two weeks)
CC1(C)CCN(C(=O)CCC(=O)O)c2ccc(C#Cc3ccc(OS(=O)(=O)F)cc3)cc21 [inhibitor 10, 4-(6-((4-((fluorosulfonyl)oxy)phenyl)ethynyl)-4,4-dimethyl-3,4-dihydroquinolin-1(2H)-yl)-4-oxobutanoic acid]	monomeric adducts with only one modification	approximately 3,600 M^−1s^−1	> 95%	selectively modifies Tyr135			
CC1(C)CCN(C(=O)CCC(=O)NCCOCCOCCOCCOCCOCCOCCOCCOCCOCCOCCOCCNC(=O)CCCCCNC(=O)c2ccc3c(c2)C(=O)OC32c3ccc(O)cc3Oc3cc(O)ccc32)c2ccc(C#Cc3ccc(OS(=O)(=O)F)cc3)cc21 [linker 11, Bi-EG(11)-(CrabTag Ligand, Fluorescein)]	monomeric adducts with only one modification				maintained selective reactivity with the CrabTag enzyme	(3.6±0.5)×10^3 M^−1s^−1	over 95%
